Experimental data from patent publication US20230078764A1 (Yumanity Therapeutics, Inc., priority 2019, published 2023).

How the values were obtained:
human SCD5 = target: T1, human SCD5 (Homo sapiens, UniProt Q86SK9); assay: Growth inhibition of yeast strain expressing human SCD5 as sole desaturase (OLE1 deleted), OD600 readout; type: cell-based; conditions: yeast strain expressing human SCD5 as sole desaturase; growth (OD600) after 40 h at 30° C.; read-out: SCD5 IC50
T1 construct: expressed in transfected cells; host or cells: yeast strain with OLE1 deleted, plasmid-borne human SCD5 (selected in SD-Ura)
T1 sequence (Q86SK9 1-330): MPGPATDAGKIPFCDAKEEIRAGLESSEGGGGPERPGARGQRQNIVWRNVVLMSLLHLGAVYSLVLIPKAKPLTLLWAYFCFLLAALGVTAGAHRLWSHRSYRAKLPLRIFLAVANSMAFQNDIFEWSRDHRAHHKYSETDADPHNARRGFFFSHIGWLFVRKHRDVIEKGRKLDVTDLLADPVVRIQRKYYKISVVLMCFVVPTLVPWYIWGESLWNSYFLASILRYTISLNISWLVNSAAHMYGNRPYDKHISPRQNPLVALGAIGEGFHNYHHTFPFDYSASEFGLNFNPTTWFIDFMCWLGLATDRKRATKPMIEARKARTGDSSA

human SCD1 = target: T2, human SCD1 (Homo sapiens, UniProt O00767); assay: Growth inhibition of yeast strain expressing human SCD1 as sole desaturase (OLE1 deleted), OD600 readout; type: cell-based; conditions: yeast strain expressing human SCD1 as sole desaturase; growth (OD600) after 40 h at 30° C.; read-out: SCD1 IC50
T2 construct: expressed in transfected cells; host or cells: yeast strain with OLE1 deleted, plasmid-borne human SCD1 (selected in SD-Ura)
T2 sequence (O00767 1-359): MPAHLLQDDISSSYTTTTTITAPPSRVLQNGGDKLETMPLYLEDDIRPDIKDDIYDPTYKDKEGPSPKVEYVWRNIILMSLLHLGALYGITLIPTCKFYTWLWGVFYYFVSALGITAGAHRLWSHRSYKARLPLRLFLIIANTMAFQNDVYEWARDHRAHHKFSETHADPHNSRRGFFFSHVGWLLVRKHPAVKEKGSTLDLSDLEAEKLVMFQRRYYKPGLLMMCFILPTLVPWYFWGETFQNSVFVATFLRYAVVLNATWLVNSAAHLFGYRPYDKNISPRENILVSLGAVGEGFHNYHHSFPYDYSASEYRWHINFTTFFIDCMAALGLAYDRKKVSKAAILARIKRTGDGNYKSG

Row | SMILES | IC50 (human SCD5) | IC50 (human SCD1)
1 | Cn1cc(C(=O)Nc2ccc(Cc3ccc(F)c(F)c3Cl)cn2)ccc1=O [Compound 572] | 10 nM | 17 nM
2 | Cn1nc(C(=O)Nc2ccc(Oc3cc(F)cc(F)c3)cn2)ccc1=O [Compound 573] | 2300 nM | > 45000 nM
3 | Cn1nc(C(=O)Nc2ccc(Cc3ccc(F)c(C(F)F)c3)cn2)ccc1=O [Compound 575] | 10 nM | 370 nM
4 | N#Cc1ccc(C(=O)Nc2ccc(Cc3ccc(F)c(F)c3)cn2)nn1 [Compound 576] | 400 nM | > 45000 nM
5 | Cn1nc(C(=O)Nc2ncc(Cc3ccc(F)c(F)c3)cc2F)ccc1=O [Compound 577] | 6400 nM | 23000 nM
6 | CNC(=O)c1ccnc(C(=O)Nc2ccc(Cc3cccc(F)c3)cn2)c1 [Compound 578] | 370 nM | > 45000 nM
7 | N#Cc1cncc(C(=O)Nc2ccc(Cc3cccc(F)c3)cn2)c1 [Compound 579] | 740 nM | > 45000 nM
8 | O=C(Nc1ccc(Cc2cc(F)cc(F)c2)cn1)c1cncc(CO)c1 [Compound 580] | 10 nM | 19 nM
9 | Cc1ncc(C(=O)Nc2ccc(Cc3cc(F)cc(F)c3)cn2)cn1 [Compound 581] | 62 nM | 680 nM
10 | CCn1cc(C(=O)Nc2ccc(Cc3ccc(F)c(F)c3)cn2)ccc1=O [Compound 582] | 280 nM | 4300 nM
11 | Cn1nc(C(=O)Nc2ccc(COc3ccccc3)cn2)ccc1=O [Compound 584] | 1200 nM | > 45000 nM
12 | O=C(Nc1ccc(Cc2ccc(F)c(F)c2)cn1)c1ccc(Cl)nn1 [Compound 585] | 380 nM | > 45000 nM
13 | Cn1nc(C(=O)Nc2ccc(Oc3cc(F)cc(Cl)c3)cn2)ccc1=O [Compound 586] | 1300 nM | > 45000 nM
14 | Cn1cc(C(=O)Nc2ccc(Oc3ccc(F)c(F)c3)cn2)ccc1=O [Compound 587] | 1100 nM | 17000 nM
15 | Cn1cc(C(=O)Nc2ccc(Oc3cc(F)cc(F)c3)cn2)ccc1=O [Compound 588] | 530 nM | 6200 nM
16 | Cn1cc(C(=O)Nc2ccc(Oc3cc(F)cc(Cl)c3)cn2)ccc1=O [Compound 589] | 150 nM | 2300 nM
17 | Cn1ccc(C(=O)Nc2ccc(Cc3cc(F)cc(F)c3)cn2)nc1=O [Compound 590] | 470 nM | 30000 nM
18 | N#Cc1cnc(C(=O)Nc2ccc(Cc3ccc(F)c(F)c3)cn2)cn1 [Compound 591] | 18 nM | 2200 nM
19 | CNC(=O)c1ccc(C(=O)Nc2ccc(Cc3cccc(Cl)c3)cn2)cn1 [Compound 592] | 276 nM | > 45000 nM
20 | CNC(=O)c1ccc(C(=O)Nc2ccc(Cc3ccc(F)c(F)c3)cn2)cn1 [Compound 593] | 430 nM | > 45000 nM
21 | CCn1cc(C(=O)Nc2ccc(Cc3cc(F)cc(C#N)c3)cn2)cn1 [Compound 594] | 120 nM | 3100 nM

Row | SMILES | IC50 (human SCD5) | IC50 (human SCD1)
22 | Cc1ncc(C(=O)Nc2ccc(Cc3cc(F)cc(C#N)c3)cn2)cn1 [Compound 595] | 420 nM | 35000 nM
23 | COc1cc(C(=O)Nc2ccc(Cc3cc(F)cc(F)c3)cn2)nn(C)c1=O [Compound 596] | 26 nM | 1080 nM
24 | COc1cc(Cc2ccc(NC(=O)c3ccc(=O)n(C)n3)nc2)ccc1F [Compound 597] | 70 nM | 2600 nM
25 | CN1N=C(C(=O)Nc2ccc(COc3ccc(F)c(F)c3)cn2)CCC1=O [Compound 598] | 150 nM | 39000 nM
26 | Cn1nc(C(=O)Nc2ccc(COc3ccc(F)cc3)cn2)ccc1=O [Compound 599] | 940 nM | > 45000 nM
27 | Cn1cc(C(=O)Nc2ccc(COc3ccccc3)cn2)ccc1=O [Compound 600] | 1600 nM | 28000 nM
28 | O=C(Nc1ccc(Cc2cc(F)cc(F)c2)cn1)c1cnc(Cl)c(Cl)c1 [Compound 601] | 34 nM | > 45000 nM
29 | O=C(Nc1ccc(Cc2ccc(F)c(F)c2)cn1)c1cnc(Cl)cn1 [Compound 602] | 66 nM | > 45000 nM
30 | O=C(Nc1ccc(Cc2ccc(F)c(F)c2)cn1)c1ncc(CO)cn1 [Compound 603] | 10 nM | 10 nM
31 | CC(O)c1cnc(C(=O)Nc2ccc(Cc3ccc(F)c(F)c3)cn2)nc1 (stereo not drawn) [Compound 604] | 42 nM | 37 nM
32 | O=C(Nc1ccc(Cc2cccc(Cl)c2)cn1)c1ccc([C@@H](O)CO)nc1 [Compound 605] | 320 nM | 280 nM
33 | Cc1cc(C(=O)Nc2ccc(Cc3cc(F)cc(C#N)c3)cn2)nc(C)n1 [Compound 606] | 170 nM | 610 nM
34 | CN1N=C(C(=O)Nc2ccc(COc3ccc(F)cc3F)cn2)CCC1=O [Compound 607] | 580 nM | > 45000 nM
35 | N#Cc1ncc(C(=O)Nc2ccc(Cc3cc(F)cc(F)c3)cn2)cc1Cl [Compound 608] | 27 nM | 910 nM
36 | Cc1cc(C(=O)Nc2ccc(Cc3cc(F)cc(C#N)c3)cn2)nn(C)c1=O [Compound 609] | 284 nM | > 45000 nM
37 | Cc1cc(C(=O)Nc2ccc(Cc3ccc(F)c(C#N)c3)cn2)nn(C)c1=O [Compound 610] | 600 nM | 3400 nM
38 | O=C(Nc1ccc(Cc2cccc(F)c2)cn1)c1ncc(Cl)cc1F [Compound 611] | 371 nM | > 45000 nM
39 | N#Cc1cc(C(=O)Nc2ccc(Cc3cc(F)cc(F)c3)cn2)cnc1C#N [Compound 612] | 1200 nM | 4400 nM
40 | COc1cc(Cc2ccc(NC(=O)c3ccc(=O)n(C)c3)nc2)ccn1 [Compound 613] | 600 nM | 3400 nM
41 | Cn1nc(C(=O)Nc2ccc(Cc3cccc(C#N)c3F)cn2)ccc1=O [Compound 614] | 2500 nM | > 45000 nM
42 | Cn1nc(C(=O)Nc2ccc(COc3ccccc3Cl)cn2)ccc1=O [Compound 615] | 79 nM | > 45000 nM

Row | SMILES | IC50 (human SCD5) | IC50 (human SCD1)
43 | Cc1cc(C(=O)Nc2ccc(Cc3cc(F)cc(F)c3)cn2)cnc1C#N [Compound 616] | 10 nM | 522 nM
44 | Cn1cc(C(=O)Nc2ccc(Cc3ccc(Cl)c(C#N)c3)cn2)ccc1=O [Compound 617] | 39 nM | 220 nM
45 | Cn1cc(C(=O)Nc2ccc(Cc3cc(Cl)cc(C#N)c3)cn2)ccc1=O [Compound 618] | 22 nM | 510 nM
46 | Cc1cc(C(=O)Nc2ccc(Cc3cc(F)cc(F)c3)cn2)cnc1Cl [Compound 619] | 150 nM | 28000 nM
47 | Cn1ccc(C(=O)Nc2ccc(Cc3cc(F)cc(C#N)c3)cn2)cc1=O [Compound 620] | 200 nM | 200 nM
48 | O=C(Nc1ccc(Cc2ccc(F)c(F)c2)cn1)c1ccnnc1 [Compound 621] | 25 nM | 35 nM
49 | O=C(Nc1ccc(Cc2cc(F)cc(F)c2)cn1)c1ccnnc1 [Compound 622] | 16 nM | 23 nM
50 | Cc1cc(C(=O)Nc2ccc(Cc3cccc(F)c3)cn2)cn(C)c1=O [Compound 623] | 19 nM | 232 nM
51 | Cc1cc(C(=O)Nc2ccc(Cc3cccc(F)c3)cn2)c(=O)n(C)n1 [Compound 624] | 54 nM | > 45000 nM
52 | Cn1cc(NC(=O)c2ncc(Cc3ccc(F)c(F)c3)cc2F)ccc1=O [Compound 625] | 310 nM | 4800 nM
53 | Cn1nc(C(=O)Nc2ccc(Cc3cc(Cl)cc(C#N)c3)cn2)ccc1=O [Compound 626] | 14 nM | > 45000 nM
54 | N#Cc1cnc(NC(=O)c2ccc(Cc3cccc(F)c3)cn2)nc1 [Compound 627] | 10 nM | 327 nM
55 | N#Cc1cc(F)cc(Cc2ccc(NC(=O)c3cncc(CO)c3)nc2)c1 [Compound 628] | 30 nM | 190 nM
56 | N#Cc1ccc(C(=O)Nc2ccc(Cc3cc(F)ccc3F)cn2)cn1 [Compound 629] | 250 nM | 3300 nM
57 | Cn1ccc(C(=O)Nc2ccc(Cc3cc(F)ccc3F)cn2)cc1=O [Compound 630] | 320 nM | 1100 nM
58 | O=C(Nc1ncc(Br)cn1)c1ccc(Cc2cccc(F)c2)cn1 [Compound 631] | 2200 nM | 650 nM
59 | O=C(Nc1ccc(Cc2cccc(F)c2)cn1)c1csc(Br)n1 [Compound 632] | 70 nM | > 45000 nM
60 | O=C(Nc1ccc(Cc2cccc(F)c2)cn1)c1cscn1 [Compound 633] | 270 nM | 1800 nM
61 | COc1cc(Cc2ccc(NC(=O)c3cnc(Cl)cn3)nc2)ccc1F [Compound 634] | 280 nM | > 45000 nM
62 | O=C(Nc1ccc(Cc2cc(F)cc(F)c2)cn1)c1cnc(Cl)cn1 [Compound 635] | 62 nM | > 45000 nM
63 | N#Cc1cnc(C(=O)Nc2ccc(Cc3cccc(F)c3)cn2)c(F)c1 [Compound 636] | 142 nM | > 45000 nM
